Results as given in PubChem BioAssay (NCI).
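1) Cells in 96-well plates. 2) Compound, 48 h, 5 concentrations. 3) Linear interpolation between surrounding doses. 4) Unreached endpoint = highest concentration. The concentration for full growth arrest is given as TGI.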

Columns and labels:
Test in all cases: NCI anticancer screen, dose series, 48 h
[1] = test system: A498 renal
[2] = test system: A549 NSCLC
[3] = test system: ACHN renal
[4] = test system: CCRF-CEM leukemia
[5] = test system: DMS 114 small cell lung
[6] = test system: DMS 273 small cell lung
[7] = test system: HCT-116 colon
[8] = test system: HCT-15 colon
[9] = test system: HL-60(TB) leukemia
[10] = test system: HOP-18 NSCLC
[11] = test system: HT29 colon
[12] = test system: IGROV1 ovarian
[13] = test system: K-562 leukemia
[14] = test system: KM12 colon
[15] = test system: LOX IMVI melanoma
[16] = test system: LXFL 529 NSCLC
[17] = test system: M14 melanoma
[18] = test system: M19-MEL melanoma
[19] = test system: MALME-3M melanoma
[20] = test system: MOLT-4 leukemia
[21] = test system: NCI-H226 lung
[22] = test system: NCI-H23 lung
[23] = test system: NCI-H460 lung
[24] = test system: OVCAR-3 ovarian
[25] = test system: OVCAR-4 ovarian
[26] = test system: OVCAR-8 ovarian
[27] = test system: RXF 393 renal
[28] = test system: SF-268 CNS
[29] = test system: SF-295 CNS
[30] = test system: SF-539 CNS
[31] = test system: SK-MEL-2 melanoma
[32] = test system: SK-MEL-28 melanoma
[33] = test system: SK-MEL-5 melanoma
[34] = test system: SN12C renal
[35] = test system: SNB-75 CNS
[36] = test system: SNB-78 CNS
[37] = test system: SW-620 colon
[38] = test system: TK-10 renal
[39] = test system: UACC-257 melanoma
[40] = test system: UACC-62 melanoma
[41] = test system: 786-0 renal
[42] = test system: BT-549 breast
[43] = test system: CAKI-1 renal
[44] = test system: COLO 205 colon
[45] = test system: DU-145 prostate
[46] = test system: EKVX NSCLC
[47] = test system: HCC-2998 colon
[48] = test system: HOP-62 NSCLC
[49] = test system: HOP-92 NSCLC
[50] = test system: HS 578T breast
[51] = test system: MCF7 breast
[52] = test system: MDA-MB-231 breast
[53] = test system: MDA-MB-435
[54] = test system: MDA-N
[55] = test system: NCI-H522 lung
[56] = test system: NCI/ADR-RES ovarian
[57] = test system: OVCAR-5 ovarian
[58] = test system: PC-3 prostate
[59] = test system: RPMI-8226 leukemia
[60] = test system: SK-OV-3 ovarian
[61] = test system: SNB-19 CNS
[62] = test system: SR leukemia
[63] = test system: T-47D breast
[64] = test system: U251 CNS
[65] = test system: UO-31 renal
[66] = test system: DLD-1 colon
[67] = test system: KM20L2 colon
[68] = test system: XF 498 CNS

CC1(C)OC(COP2OCCO2)[C@H](COP2OCCO2)O1 (stereo partly drawn)
TGI [1]: > 100 µM
TGI [2]: > 100 µM
TGI [3]: > 100 µM
TGI [4]: > 100 µM
TGI [5]: > 100 µM
TGI [6]: > 100 µM
TGI [7]: > 100 µM
TGI [8]: > 100 µM
TGI [9]: > 100 µM
TGI [10]: > 100 µM
TGI [11]: > 100 µM
TGI [12]: > 100 µM
TGI [13]: > 100 µM
TGI [14]: > 100 µM
TGI [15]: > 100 µM
TGI [16]: > 100000 nM
TGI [17]: > 100 µM
TGI [18]: > 100 µM
TGI [19]: > 100 µM
TGI [20]: > 100 µM
TGI [21]: > 100 µM
TGI [22]: > 100 µM
TGI [23]: > 100 µM
TGI [24]: > 100 µM
TGI [25]: > 100 µM
TGI [26]: > 100 µM
TGI [27]: > 100 µM
TGI [28]: > 100 µM
TGI [29]: > 100 µM
TGI [30]: > 100 µM
TGI [31]: > 100 µM
TGI [32]: > 100 µM
TGI [33]: > 100 µM
TGI [34]: > 100 µM
TGI [35]: > 100 µM
TGI [36]: > 100 µM
TGI [37]: > 100 µM
TGI [38]: > 100 µM
TGI [39]: > 100 µM
TGI [40]: > 100 µM

COC(=O)c1nc2n(n1)-c1ccccc1C(=O)N(Cc1ccccc1)C2
TGI [41]: > 100 µM
TGI [1]: > 100 µM
TGI [2]: > 100 µM
TGI [3]: > 100 µM
TGI [42]: > 100 µM
TGI [43]: > 100 µM
TGI [4]: > 100 µM
TGI [44]: > 100 µM
TGI [45]: > 100 µM
TGI [46]: > 100 µM
TGI [47]: > 100 µM
TGI [7]: > 100 µM
TGI [8]: > 100 µM
TGI [9]: > 100 µM
TGI [48]: > 100 µM
TGI [49]: > 100 µM
TGI [50]: > 100 µM
TGI [11]: > 100 µM
TGI [12]: > 100 µM
TGI [13]: > 100 µM
TGI [14]: > 100 µM
TGI [15]: > 100 µM
TGI [17]: > 100 µM
TGI [19]: > 100 µM
TGI [51]: > 100 µM
TGI [52]: > 100 µM
TGI [53]: > 100 µM
TGI [54]: > 100 µM
TGI [20]: > 100 µM
TGI [21]: > 100 µM
TGI [22]: > 100 µM
TGI [23]: > 100 µM
TGI [55]: > 100 µM
TGI [56]: > 100 µM
TGI [24]: > 100 µM
TGI [25]: > 100 µM
TGI [57]: > 100 µM
TGI [26]: > 100 µM
TGI [58]: > 100 µM
TGI [59]: > 100 µM
TGI [27]: > 100 µM
TGI [28]: > 100 µM
TGI [29]: > 100 µM
TGI [30]: > 100 µM
TGI [31]: > 100 µM
TGI [32]: > 100 µM
TGI [33]: > 100 µM
TGI [60]: > 100 µM
TGI [34]: > 100 µM
TGI [61]: > 100 µM
TGI [62]: > 100 µM
TGI [37]: > 100 µM
TGI [63]: > 100 µM
TGI [38]: > 100 µM
TGI [64]: > 100 µM
TGI [39]: > 100 µM
TGI [40]: > 100 µM
TGI [65]: > 100000 nM

COc1cc2c(cc1O)CCN[C@@]21CS[C@H]2c3c(OC(C)=O)c(C)c4c(c3C(COC1=O)N1C2C2NC(Cc3cc(C)c(OC)c(O)c32)[C@@H]1C#N)OCO4 (stereo partly drawn)
TGI [41]: 0.162 µM
TGI [3]: 0.721 µM
TGI [4]: 0.0525 µM
TGI [66]: 271 nM
TGI [5]: < 0.01 µM
TGI [46]: 0.125 µM
TGI [47]: < 0.01 µM
TGI [7]: 1.14 µM
TGI [9]: 0.0209 µM
TGI [48]: 0.0107 µM
TGI [11]: 0.16 µM
TGI [67]: < 10 nM
TGI [16]: 111 nM
TGI [17]: < 0.01 µM
TGI [18]: < 0.01 µM
TGI [19]: < 0.01 µM
TGI [20]: < 0.01 µM
TGI [21]: < 0.01 µM
TGI [22]: < 0.01 µM
TGI [25]: < 0.01 µM
TGI [59]: 0.017 µM
TGI [27]: < 0.01 µM
TGI [28]: 0.104 µM
TGI [30]: < 0.01 µM
TGI [31]: < 0.01 µM
TGI [32]: 0.0268 µM
TGI [33]: < 0.01 µM
TGI [34]: 0.115 µM
TGI [61]: 1.87 µM
TGI [35]: < 0.01 µM
TGI [62]: > 100 µM
TGI [37]: 1.06 µM
TGI [38]: 61 µM
TGI [64]: 0.444 µM
TGI [40]: < 0.01 µM
TGI [68]: < 10 nM

COc1ccc(Cc2nc3cc(C(F)(F)F)ccc3n2C[C@@H]2CCCN3CCCCC23)cc1 (stereo partly drawn)
TGI [41]: 20.3 µM
TGI [1]: 14.1 µM
TGI [2]: 24.7 µM
TGI [3]: 22.5 µM
TGI [42]: 28.5 µM
TGI [43]: 25.6 µM
TGI [4]: > 44.5 µM
TGI [44]: 18.9 µM
TGI [45]: 26.6 µM
TGI [46]: 27.7 µM
TGI [47]: 5.94 µM
TGI [7]: 20.4 µM
TGI [8]: 30.8 µM
TGI [9]: 19.5 µM
TGI [48]: 23.2 µM
TGI [49]: 20.7 µM
TGI [50]: 65.9 µM
TGI [11]: 15.4 µM
TGI [12]: 15.7 µM
TGI [13]: > 64.8 µM
TGI [14]: 27.4 µM
TGI [15]: 24.9 µM
TGI [17]: 7.14 µM
TGI [19]: 8.88 µM
TGI [51]: 26.2 µM
TGI [52]: 25.2 µM
TGI [53]: 26.8 µM
TGI [54]: 13.2 µM
TGI [20]: 31.7 µM
TGI [21]: 37 µM
TGI [22]: 30.9 µM
TGI [23]: 31.1 µM
TGI [55]: 21.8 µM
TGI [56]: 30.7 µM
TGI [24]: 12.8 µM
TGI [25]: 25.1 µM
TGI [57]: 27.8 µM
TGI [26]: 30.3 µM
TGI [58]: 24 µM
TGI [59]: 94.8 µM
TGI [27]: 22.3 µM
TGI [28]: 19 µM
TGI [29]: 12.3 µM
TGI [30]: 28.1 µM
TGI [31]: 30.1 µM
TGI [32]: 27.6 µM
TGI [33]: 20.3 µM
TGI [60]: 28.4 µM
TGI [34]: 22.3 µM
TGI [61]: 27.4 µM
TGI [35]: 77.4 µM
TGI [62]: > 100 µM
TGI [37]: > 62.1 µM
TGI [63]: 22.9 µM
TGI [38]: 24.2 µM
TGI [64]: 27.7 µM
TGI [39]: 6.77 µM
TGI [40]: 11.5 µM
TGI [65]: 166 nM
